Data from patent US20220273631A1, “METHOD FOR TREATING SEXUAL DYSFUNCTION” (Catalyst Pharmaceuticals, Inc., priority 2019, published 2022).

Test system: subject two
Assay: International Index of Erectile Function (IIEF) self-report before and after 4-week oral treatment
Format: in vivo, human
Design: key to IIEF question 1 score: able to get an erection during sexual activity / IIEF question 4 score: able to maintain erection after penetration / IIEF question 7 score: attempted intercourse satisfactory: each question scored 0-5
Conditions: for IIEF question 1 score: able to get an erection during sexual activity / IIEF question 2 score: erections hard enough for penetration / IIEF question 3 score: able to penetrate partner when attempting intercourse / IIEF question 4 score: able to maintain erection after penetration / IIEF question 5 score: difficulty to maintain erection to completion of intercourse / IIEF question 6 score: attempts for sexual intercourse / IIEF question 7 score: attempted intercourse satisfactory / IIEF question 8 score: enjoyment of sexual intercourse / IIEF question 9 score: ejaculated with sexual stimulation or intercourse / IIEF question 10 score: feeling of orgasm or climax / IIEF question 11 score: how often felt sexual desire / IIEF question 12 score: level of sexual desire / IIEF question 13 score: satisfaction with overall sex life / IIEF question 14 score: satisfaction with sexual relationship with partner / IIEF question 15 score: confidence to get and keep an erection: post-treatment IIEF
Excerpt: The “International Index of Erectile Function” or “IIEF” is a self-report inventory consisting of 15 questions and 5 functional domains, which was developed for use in determining efficacy of treatment in controlled clinical trials. The IIEF has high sensitivity and specificity for detecting real treatment effects or the lack of treatment effects in patients with ED of broad-spectrum etiology. A score of 0-5 is awarded to each of the 15 questions that examine the 4 main domains of male sexual function: erectile function, orgasmic function, sexual desire, and intercourse satisfaction. Rosen, R., et al. (in Urology 49:822-830 (1997)) describe a study where the IIEF was tested in a series of 111 men with […] and 109 age-matched, normal volunteers. In some embodiments, the therapeutic efficacy of 3,4-diaminopyridine, or a pharmaceutically acceptable thereof, in the present methods in male subjects can be assessed by the Brief Male Sexual Function Inventory (BSFI) described by, for example, Mykletun et al., BJU International 97:316-323 (2005). In some embodiments, the Male Sexual Health Questionnaire (MSHQ) can be used to assess sexual function and satisfaction in older men with urogenital symptoms of lower urinary tract and sexual dysfunction. See, e.g., Rosen, et al., Urology 64(4):777-782 (2004). In some embodiments, the therapeutic efficacy of 3,4-diaminopyridine, or a pharmaceutically acceptable thereof, in the present methods in male subjects, can be assessed by the 15-question International Index of Erectile Function (IIEF) described by, for example, Rosen et al., Urology 49:822-830 (1997). […] The subject then orally self-administered a total daily dose of 60 mg (4 times 15 mg) of 3,4-diaminopyridine phosphate salt for 4 weeks. The last dose of each day was self-administered at about 8:30 pm. The timing of their sexual activity, if any, was at about 11:30 am (after the 11 am dose) or at about 4 pm. After the 4-week treatment period, the subject self-reported sexual functioning for the past 4 weeks using the IIEF questionnaire (“the post-treatment IIEF”). […] The subject then orally self-administered a total daily dose of 80 mg (4 times 20 mg) of 3,4-diaminopyridine phosphate salt for 4 weeks. The last dose of each day was self-administered at about 6:30 pm. The timing of their sexual activity, if any, was at about 7:30 pm. After the 4-week treatment period, the subject self-reported sexual functioning for the past 4 weeks using the IIEF questionnaire (“the post-treatment IIEF”).

[1] = Example 4, subject, 60 mg daily (4 times 15 mg) orally for 4 weeks
[2] = Example 4, subject, 60 mg daily orally for 4 weeks
[3] = Example 4, subject, 60 mg daily orally for 4 weeks, maximum score 10, pre-treatment score 4
[4] = Example 5, subject, 80 mg daily (4 times 20 mg) orally for 4 weeks

Nc1ccncc1N.O=P(O)(O)O [3,4-diaminopyridine phosphate salt]
IIEF question 1 score: able to get an erection during sexual activity [1]: 4
IIEF question 2 score: erections hard enough for penetration [1]: 4
IIEF question 3 score: able to penetrate partner when attempting intercourse [1]: 4
IIEF question 4 score: able to maintain erection after penetration [1]: 3
IIEF question 5 score: difficulty to maintain erection to completion of intercourse [1]: 4
IIEF question 6 score: attempts for sexual intercourse [1]: 3
IIEF question 7 score: attempted intercourse satisfactory [1]: 4
IIEF question 8 score: enjoyment of sexual intercourse [1]: 4
IIEF question 9 score: ejaculated with sexual stimulation or intercourse [1]: 4
IIEF question 10 score: feeling of orgasm or climax [1]: 4
IIEF question 11 score: how often felt sexual desire [1]: 5
IIEF question 12 score: level of sexual desire [1]: 4
IIEF question 13 score: satisfaction with overall sex life [1]: 4
IIEF question 14 score: satisfaction with sexual relationship with partner [1]: 4
IIEF question 15 score: confidence to get and keep an erection [1]: 4
arousal (subject report) [2]: more aroused
overall sexual performance (subject report) [2]: better
effect on all the 5 IIEF domains of male sexual function (Example 4, subject, 60 mg daily orally for 4 weeks, Table 3): improved
Post-Treatment Score, IIEF domain B. Orgasmic Function (questions 9 and 10) [3]: 8
Post-Treatment Score, IIEF domain E. Overall Satisfaction (questions 13 and 14) [3]: 8
Post-Treatment Score, IIEF domain C. Sexual Desire (questions 11 and 12) (Example 4, subject, 60 mg daily orally for 4 weeks, maximum score 10, pre-treatment score 5): 9
Post-Treatment Score, IIEF domain D. Intercourse Satisfaction (questions 6-8) (Example 4, subject, 60 mg daily orally for 4 weeks, maximum score 15, pre-treatment score 5): 11
Post-Treatment Score, IIEF domain A. Erectile Function (questions 1-5 and 15) (Example 4, subject, 60 mg daily orally for 4 weeks, maximum score 30, pre-treatment score 8): 23
IIEF question 1 score: able to get an erection during sexual activity [4]: 4
IIEF question 2 score: erections hard enough for penetration [4]: 4
IIEF question 3 score: able to penetrate partner when attempting intercourse [4]: 4
IIEF question 4 score: able to maintain erection after penetration [4]: 3
IIEF question 5 score: difficulty to maintain erection to completion of intercourse [4]: 4
IIEF question 6 score: attempts for sexual intercourse [4]: 3
IIEF question 7 score: attempted intercourse satisfactory [4]: 4
IIEF question 8 score: enjoyment of sexual intercourse [4]: 4
IIEF question 9 score: ejaculated with sexual stimulation or intercourse [4]: 4
IIEF question 10 score: feeling of orgasm or climax [4]: 4
IIEF question 11 score: how often felt sexual desire [4]: 5
IIEF question 12 score: level of sexual desire [4]: 4
IIEF question 13 score: satisfaction with overall sex life [4]: 4
IIEF question 14 score: satisfaction with sexual relationship with partner [4]: 4
IIEF question 15 score: confidence to get and keep an erection [4]: 4
overall sexual performance (subject report) (Example 5, subject, 80 mg daily orally for 4 weeks): better
